In this data set the test system is EL4 lymphoma. The data set can be described thus: Repeated treatments of mice bearing ip EL4 lymphoma. The note with it: for Median survival time: mice that died of the tumor; for Antitumor (curing) effect in words: injected intraperitoneally at different intervals after tumor cell innoculation; for Relative effectivity among derivatives: comparison in words. It is filed as in vivo, C57BL/6 mice. Also noted: Median survival time: unit not given here. As to the method: Four to six weeks old C57BL/6 mice were innoculated with the ascite lymphoma tumor EL4.BU. Daunomycin and its derivatives were injected intraperitoneally at different intervals after tumor cell innoculation.
Some of the mice were totally cured, with no physical manifestation of any side effects of the tested derivatized daunomycin compounds.
10^6 EL4 lymphoma cells were innoculated ip into C57BL/6 males. Drug
administration started 2 days later.
*Refers to the group of mice that died of the tumor.

“Also recorded” adds a separate entry of the source.

With `COc1cccc2c1C(=O)c1c(O)c3c(c(O)c1C2=O)C[C@@](O)(C(C)=O)C[C@@H]3O[C@H]1C[C@H](NC(=O)[C@H](CCCCN)NC(=O)[C@H](CCCCN)NC(=O)[C@@H](N)CCCCN)[C@H](O)[C@H](C)O1` [(Lys)3 -DM, (lysyl)3 -daunomycin], the “Antitumor (curing) effect in words” value was “complete cure, or a significantly prolonged life span with no apparent toxic effects”. For the same compound, where the note is “250 μg/mouse, 8 injections ip”, the “Long time survivors (over 60 days)” value is 6, the “Toxic deaths/No. mice treated” value was 1/8 and the Median survival time came out at 25.
As for `COc1cccc2c1C(=O)c1c(O)c3c(c(O)c1C2=O)CC(O)(C(C)=O)CC3OC1CC(NC(=O)C(CCCNC(=N)N)NC(=O)C(N)CCCNC(=N)N)C(O)C(C)O1` (centres unmarked) [(arginyl)2 -daunomycin, arginyl-arginyl-daunomycin], the “Antitumor (curing) effect in words” value is “complete cure, or a significantly prolonged life span with no apparent toxic effects”.
Consider `COc1cccc2c1C(=O)c1c(O)c3c(c(O)c1C2=O)C[C@@](O)(C(C)=O)C[C@@H]3O[C@H]1C[C@H](NC(=O)C(N)Cc2ccc(O)c(O)c2)[C@H](O)[C@H](C)O1` (some centres unmarked) [DOPA-DM, dihydroxyphenylalanyl-daunomycin], for which, for the setting “240 μg/mouse, 8 injections ip”, the “Long time survivors (over 60 days)” value turned out to be 3, the “Toxic deaths/No. mice treated” value was 0/4 and the Median survival time is given as 28.
In the case of `COc1cccc2c1C(=O)c1c(O)c3c(c(O)c1C2=O)C[C@@](O)(C(C)=O)C[C@@H]3O[C@H]1C[C@H](N)[C@H](O)[C@H](C)O1` [Daunomycin, daunomycin], the “Antitumor (curing) effect in words” value is “no satisfactory curing effects; also recorded: very narrow border-zone between excessive toxicity and poor curative efficiency”. Besides, for the setting “20 μg/mouse, 5 injections ip”, the “Long time survivors (over 60 days)” value stood at 1, the “Toxic deaths/No. mice treated” value is 1/8 and the Median survival time came out at 17. Moreover, under “20 μg/mouse, 6 injections ip”, the “Long time survivors (over 60 days)” value came out at 0, the “Toxic deaths/No. mice treated” value is reported as 4/8 and the Median survival time is 15. Under “25 μg/mouse, 4 injections ip”, the “Long time survivors (over 60 days)” value turned out to be 0, the “Toxic deaths/No. mice treated” value is listed as 2/8 and the Median survival time is on record as 14.5. For the same compound, for the setting “25 μg/mouse, 5 injections ip”, the “Long time survivors (over 60 days)” value was 1, the “Toxic deaths/No. mice treated” value is 2/8 and the Median survival time is 24.5. Moreover, for the setting “30 μg/mouse, 4 injections ip”, the “Long time survivors (over 60 days)” value was found to be 2, the “Toxic deaths/No. mice treated” value is reported as 4/8 and the Median survival time was 25. For the same compound, for the setting “40 μg/mouse, 1 injection ip”, the “Long time survivors (over 60 days)” value was 0, the “Toxic deaths/No. mice treated” value is 2/8 and the Median survival time was determined as 19. For the same compound, under “40 μg/mouse, 4 injections ip”, the “Long time survivors (over 60 days)” value worked out at 0, the “Toxic deaths/No. mice treated” value is 4/8 and the Median survival time was 18. Further, for the setting “50 μg/mouse, 2 injections ip”, the “Long time survivors (over 60 days)” value was 0, the “Toxic deaths/No. mice treated” value is 2/8 and the Median survival time was 19. Besides, for the setting “60 μg/mouse, 1 injection ip”, the “Long time survivors (over 60 days)” value is 0, the “Toxic deaths/No. mice treated” value is on record as 6/8 and the Median survival time is 18. Further, where the note is “80 μg/mouse, 1 injection ip”, the “Long time survivors (over 60 days)” value came out at 0, the “Toxic deaths/No. mice treated” value is 8/8 and the Median survival time stood at 17. Further, the “Effects at high doses” value (doses exceeding 70 μg/mouse in a single injection, or lower doses in multiple injections) is “acute toxicity marked by a generally wasted appearance and death, to no efficient depression of the growing tumor”.
For the compound `COc1cccc2c1C(=O)c1c(O)c3c(c(O)c1C2=O)C[C@@](O)(C(C)=O)C[C@@H]3OC1CC(NC(=O)C(N)CCN)C(O)C(C)O1.[Cl-].[Na+]` (some centres unmarked) [Dbu-DM, diaminobutyryl-daunomycin], the “Antitumor (curing) effect in words” value is given as “complete cure, or a significantly prolonged life span with no apparent toxic effects”. For the setting “650 μg/mouse, 8 injections ip”, the “Long time survivors (over 60 days)” value is 12, the “Toxic deaths/No. mice treated” value is 0/14 and the Median survival time was determined as 31.
For `COc1cccc2c1C(=O)c1c(O)c3c(c(O)c1C2=O)C[C@@](O)(C(C)=O)C[C@@H]3O[C@H]1C[C@H](NC(=O)[C@@H](N)Cc2cnc[nH]2)[C@H](O)[C@H](C)O1` [histidyl-daunomycin], the “Antitumor (curing) effect in words” value is recorded as “complete cure, or a significantly prolonged life span with no apparent toxic effects”.
On to (lysyl)2 -daunomycin [(Lys)2 -DM], for which the “Antitumor (curing) effect in words” value is given as “complete cure, or a significantly prolonged life span with no apparent toxic effects”. In addition, where the note is “250 μg/mouse, 8 injections ip”, the “Long time survivors (over 60 days)” value worked out at 6, the “Toxic deaths/No. mice treated” value is given as 1/8 and the Median survival time stood at 24.
As for (ornithyl)2 -daunomycin [(Orn)2 -DM], the “Relative effectivity among derivatives” value is reported as “much more effective than with ornithine” and the “Antitumor (curing) effect in words” value is “complete cure, or a significantly prolonged life span with no apparent toxic effects”. Further, where the note is “300 μg/mouse, 8 injections ip”, the “Long time survivors (over 60 days)” value is 6 and the “Toxic deaths/No. mice treated” value is reported as 1/8.
As for “(ornithyl)n -daunomycin where n=2 to 5 [(Orn)5 -DM]”, where the note is “300 μg/mouse, 8 injections ip”, the “Long time survivors (over 60 days)” value is reported as 2, the “Toxic deaths/No. mice treated” value is reported as 1/8 and the Median survival time is 38.
arginyl-daunomycin [Arg-DM]: for the setting “250 μg/mouse, 7 injections ip”, the “Long time survivors (over 60 days)” value was 3, the “Toxic deaths/No. mice treated” value is listed as 0/4 and the Median survival time is listed as 35. Where the note is “400 μg/mouse, 6 injections ip”, the “Long time survivors (over 60 days)” value is listed as 3 and the “Toxic deaths/No. mice treated” value was 1/4.
For aspartyl-lysyl-daunomycin [Asp-Lys-DM], the “Relative effectivity among derivatives” value was “more effective than aspartyl-daunomycin” and the “Antitumor (curing) effect in words” value is listed as “complete cure, or a significantly prolonged life span with no apparent toxic effects”. Under “600 μg/mouse, 8 injections ip”, the “Long time survivors (over 60 days)” value is recorded as 6, the “Toxic deaths/No. mice treated” value is reported as 0/8 and the Median survival time worked out at 31.
Take lysyl-daunomycin [Lys-DM]: the “Antitumor (curing) effect in words” value was “complete cure, or a significantly prolonged life span with no apparent toxic effects”. For the same compound, where the note is “200 μg/mouse, 4 injections ip”, the “Long time survivors (over 60 days)” value came to 0, the “Toxic deaths/No. mice treated” value is recorded as 0/8 and the Median survival time is given as 28. Further, where the note is “250 μg/mouse, 8 injections ip”, the “Long time survivors (over 60 days)” value was found to be 5, the “Toxic deaths/No. mice treated” value is 2/8 and the Median survival time is recorded as 26.
Consider lysyl-leucyl-daunomycin, for which the “Relative effectivity among derivatives” value was “more effective than leucyl-daunomycin”.

Values taken from patent US4256632A, “Novel derivatives of daunomycin” (Yeda Research and Development Co. Ltd., priority 1978, dated 1981).
